# Experimental data taken from patent publication US9242996B2 (Novartis AG, priority 2013, dated 2016).
# Experiments:
# [1] = target: T1, activated ERK2 (Homo sapiens (Human), UniProt P28482); test: Activated ERK2 kinase assay, ERK2 New conditions (AlphaScreen, ERKtide phosphorylation); assay type: biochemical; conditions: 0.25 nM ERK2, 200 nM ERKtide peptide, 35 μM ATP, 30 min preincubation
# Protocol: The assay is carried out in 50 mM HEPES [pH 7.5], 5 mM MgCl2, 1 mM DTT, 0.01% Tween-20, 0.05% BSA using 0.25 nM ERK2, 200 nM ERKtide peptide and 35 μM ATP (all concentrations are final in the reaction) in a total volume of 10.25 μL. […] Compound dilution series are prepared in 100% DMSO. ERK2 is preincubated with compounds for 30 minutes at ambient temperature. Reaction is initiated by addition of a substrate cocktail of ERKtide peptide and ATP and is allowed to proceed for 2-3 hours at ambient temperature. Reaction is terminated by addition of 10 μL of a 2× stop buffer consisting of 100 mM Tris-Cl [pH 7.5], 25 mM EDTA, 0.01% Tween 20, 10 μg/mL of AlphaScreen Protein A Acceptor Beads, 10 μg/mL of Streptavidin Donor Beads (PerkinElmer, Waltham, Mass.), and 1.4 μg/mL phospho-EGF Receptor (Thr669) antibody (Cat #3056, Cell Signaling Technology, Danvers, Mass.). Terminated reactions are read, after overnight incubation in the dark, on an EnVision Multilabel Plate Reader (PerkinElmer, Waltham, Mass.), with excitation and emission wavelengths set to 680 nm and 570 nm, respectively. IC50 values are determined using a four-parameter fit.
# [2] = target: T1, activated ERK2; test: Activated ERK2 (20 pM) Kinase Assay (AlphaScreen, ERKtide phosphorylation); assay type: biochemical; conditions: 0.02 nM ERK2, 400 nM ERKtide peptide, 35 μM ATP, 30 min preincubation
# In short: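 AlphaScreen read-out (anti-phospho-EGFR Thr669 antibody, protein A acceptor/streptavidin donor beads) of ERKtide (400 nM) phosphorylation by 20 pM activated ERK2 at 35 μM ATP.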
# T1 sequence (P28482 whole entry): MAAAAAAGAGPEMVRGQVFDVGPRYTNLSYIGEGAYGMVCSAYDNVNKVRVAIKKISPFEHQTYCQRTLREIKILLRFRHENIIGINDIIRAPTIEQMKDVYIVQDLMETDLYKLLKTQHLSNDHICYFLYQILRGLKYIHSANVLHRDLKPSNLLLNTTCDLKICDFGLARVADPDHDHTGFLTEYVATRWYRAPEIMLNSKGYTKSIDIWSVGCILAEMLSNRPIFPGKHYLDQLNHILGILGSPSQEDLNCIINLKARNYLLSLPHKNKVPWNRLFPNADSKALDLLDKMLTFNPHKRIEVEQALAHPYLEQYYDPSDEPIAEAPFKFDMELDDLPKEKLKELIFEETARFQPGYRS
IC50 [1],IC50 [2],SMILES
0.000549 µM,,"C[C@@H](NC(=O)c1ccc(-c2cc(C3CCC(=O)NC3)cnc2N)cc1F)c1cccc(Cl)c1 (mixture of isomers) [Example 119, 4-(2-amino-5-(6-oxopiperidin-3-yl)pyridin-3-yl)-N-((R)-1-(3-chlorophenyl)ethyl)-2-fluorobenzamide]"
0.000593 µM,,"COC1CCCC(c2cnc(N)c(-c3ccc(C(=O)N[C@H](CO)c4cccc(Cl)c4)c(F)c3)n2)C1 (mixture of isomers) [Example 123, cis-4-(3-amino-6-(3-methoxycyclohexyl)pyrazin-2-yl)-N-((S)-1-(3-chlorophenyl)-2-hydroxyethyl)-2-fluorobenzamide]"
0.315 µM,,"Nc1ncc(C2CCS(=O)(=O)C2)cc1-c1ccc(C(=O)NCc2ccccc2)c(F)c1 (racemic) [Example 4, 4-(2-amino-5-(1,1-dioxidotetrahydrothiophen-3-yl)pyridin-3-yl)-N-benzyl-2-fluorobenzamide]"
0.0396 µM,,"Nc1ncc([C@H]2CCC[C@@H](O)C2)nc1-c1ccc(C(=O)NCc2ccccc2)c(F)c1 (racemic) [Example 12, (+/−)-4-(3-amino-6-((1S,3R)-3-hydroxycyclohexyl)pyrazin-2-yl)-N-benzyl-2-fluorobenzamide]"
0.361 µM,,"CS(=O)(=O)[C@@H]1CCC[C@@H](c2cnc(N)c(-c3ccc(C(=O)NCc4ccccc4)c(F)c3)n2)C1 (racemic) [Example 13, (+/−)-4-(3-amino-6-((1R,3R)-3-(methylsulfonyl)cyclohexyl)pyrazin-2-yl)-N-benzyl-2-fluorobenzamide]"
0.00839 µM,,"Nc1ncc(C2CCOCC2)nc1-c1ccc(C(=O)NC(c2ccccc2)C(F)F)c(F)c1 (racemic) [Example 50, (+/−)-4-(3-amino-6-(tetrahydro-2H-pyran-4-yl)pyrazin-2-yl)-N-(2,2-difluoro-1-phenylethyl)-2-fluorobenzamide]"
0.027 µM,,"Nc1ncc(C2CCOCC2)nc1-c1ccc(C(=O)NC(c2ccccc2)C(F)(F)F)c(F)c1 (racemic) [Example 51, (+/−)-4-(3-amino-6-(tetrahydro-2H-pyran-4-yl)pyrazin-2-yl)-2-fluoro-N-(2,2,2-trifluoro-1-phenylethyl)benzamide]"
0.274 µM,,"CC(CO)c1cnc(N)c(-c2ccc(C(=O)NCc3ccccc3)c(F)c2)n1 (racemic) [Example 115, (+/−)-4-(3-amino-6-(1-hydroxypropan-2-yl)pyrazin-2-yl)-N-benzyl-2-fluorobenzamide]"
0.00479 µM,,"Nc1ncc(C2CCC(=O)NC2)nc1-c1ccc(C(=O)NCc2ccccc2)c(F)c1 (racemic) [Example 117, (+/−)-4-(3-amino-6-(6-oxopiperidin-3-yl)pyrazin-2-yl)-N-benzyl-2-fluorobenzamide]"
0.0176 µM,,"Nc1ncc(C2CCC(=O)NC2)cc1-c1ccc(C(=O)NCc2ccccc2)c(F)c1 (racemic) [Example 118, (+/−)-4-(2-amino-5-(6-oxopiperidin-3-yl)pyridin-3-yl)-N-benzyl-2-fluorobenzamide]"
0.0626 µM,,"CO[C@@H]1CCC[C@H](c2cnc(N)c(-c3ccc(C(=O)NCc4ccccc4)c(F)c3)n2)C1 (racemic) [Example 124, (+/−)-cis-4-(3-amino-6-(3-methoxycyclohexyl)pyrazin-2-yl)-N-benzyl-2-fluorobenzamide]"
0.278 µM,,"Nc1ncc([C@@H]2CCS(=O)(=O)C2)cc1-c1ccc(C(=O)NCc2ccccc2)c(F)c1 (single isomer, unassigned) [Example 5]"
0.354 µM,,"Nc1ncc([C@H]2CCS(=O)(=O)C2)cc1-c1ccc(C(=O)NCc2ccccc2)c(F)c1 (single isomer, unassigned) [Example 6]"
12.3 µM,,"CN(Cc1ncccn1)C(=O)c1ccc(-c2cc(C3CCOCC3)cnc2N)cc1F [Example 3, 4-(2-amino-5-(tetrahydro-2H-pyran-4-yl)pyridin-3-yl)-2-fluoro-N-methyl-N-(pyrimidin-2-ylmethyl)benzamide]"
0.0652 µM,,"Nc1ncc([C@@H]2CN[C@H](CO)C2)cc1-c1ccc(C(=O)N[C@H](CO)c2cccc(Cl)c2)c(F)c1 [Example 7, 4-(2-amino-5-((3R,5S)-5-(hydroxymethyl)pyrrolidin-3-yl)pyridin-3-yl)-N—((S)-1-(3-chlorophenyl)-2-hydroxyethyl)-2-fluorobenzamide]"
0.00412 µM,,"Nc1ncc([C@H]2C[C@H]3COCC(=O)N3C2)cc1-c1ccc(C(=O)N[C@H](CO)c2cccc(Cl)c2)c(F)c1 [Example 8, 4-(2-amino-5-((7R,8aS)-4-oxohexahydro-1H-pyrrolo[2,1-c][1,4]oxazin-7-yl)pyridin-3-yl)-N—((S)-1-(3-chlorophenyl)-2-hydroxyethyl)-2-fluorobenzamide]"
0.00357 µM,,"Nc1ncc([C@H]2C[C@H]3COC(=O)N3C2)cc1-c1ccc(C(=O)N[C@H](CO)c2cccc(Cl)c2)c(F)c1 [Example 9, 4-(2-amino-5-((6R,7aS)-3-oxohexahydropyrrolo[1,2-c]oxazol-6-yl)pyridin-3-yl)-N—((S)-1-(3-chlorophenyl)-2-hydroxyethyl)-2-fluorobenzamide]"
0.0121 µM,,"N=C1OC[C@@H]2C[C@H](c3cnc(N)c(-c4ccc(C(=O)N[C@H](CO)c5cccc(Cl)c5)c(F)c4)c3)CN12 [Example 10, 4-(2-amino-5-((6R,7aS)-3-iminohexahydropyrrolo[1,2-c]oxazol-6-yl)pyridin-3-yl)-N—((S)-1-(3-chlorophenyl)-2-hydroxyethyl)-2-fluorobenzamide]"
0.00377 µM,,"Nc1ncc([C@H]2C[C@H]3COC(=S)N3C2)cc1-c1ccc(C(=O)N[C@H](CO)c2cccc(Cl)c2)c(F)c1 [Example 11, 4-(2-amino-5-((6R,7aS)-3-thioxohexahydropyrrolo[1,2-c]oxazol-6-yl)pyridin-3-yl)-N—((S)-1-(3-chlorophenyl)-2-hydroxyethyl)-2-fluorobenzamide]"
0.0127 µM,,"Nc1ncc([C@H]2CC[C@H](O)CC2)nc1-c1ccc(C(=O)NCc2ccccc2)c(F)c1 [Example 14, 4-(3-amino-6-((1r,4r)-4-hydroxycyclohexyl)pyrazin-2-yl)-N-benzyl-2-fluorobenzamide]"
0.235 µM,,"Nc1ncc([C@H]2CC[C@@H](O)CC2)nc1-c1ccc(C(=O)NCc2ccccc2)c(F)c1 [Example 15, 4-(3-amino-6-((1s,4s)-4-hydroxycyclohexyl)pyrazin-2-yl)-N-benzyl-2-fluorobenzamide]"
6.03 µM,,"COC(=O)CCc1cnc(N)c(-c2ccc(C(=O)NCc3ccccc3)c(F)c2)n1 [Example 19, methyl 3-(5-amino-6-(4-(benzylcarbamoyl)-3-fluorophenyl)pyrazin-2-yl)propanoate]"
1.09 µM,,"CNC(=O)CCc1cnc(N)c(-c2ccc(C(=O)NCc3ccccc3)c(F)c2)n1 [Example 20, 4-(3-amino-6-(3-(methylamino)-3-oxopropyl)pyrazin-2-yl)-N-benzyl-2-fluorobenzamide]"
2.67 µM,,"CS(=O)(=O)CCc1cnc(N)c(-c2ccc(C(=O)NCc3ccccc3)c(F)c2)n1 [Example 21, 4-(3-amino-6-(2-(methylsulfonyl)ethyl)pyrazin-2-yl)-N-benzyl-2-fluorobenzamide]"
0.000343 µM,,"Nc1ncc(C2CCC(=O)NC2)cc1-c1ccc(C(=O)N[C@H](CO)c2cccc(Cl)c2)c(F)c1 (stereo partly drawn) [Example 25, 4-(2-amino-5-(6-oxopiperidin-3-yl)pyridin-3-yl)-N—((S)-1-(3-chlorophenyl)-2-hydroxyethyl)-2-fluorobenzamide]"
0.00327 µM,,"CN1CCC(c2cnc(N)c(-c3ccc(C(=O)N[C@H](CO)c4cccc(Cl)c4)c(F)c3)c2)CC1=O (stereo partly drawn) [Example 26, 4-(2-amino-5-(1-methyl-2-oxopiperidin-4-yl)pyridin-3-yl)-N—((S)-1-(3-chlorophenyl)-2-hydroxyethyl)-2-fluorobenzamide]"
0.0752 µM,,"C[C@@H](NC(=O)c1ccc(-c2cc(C3CCN(C)C(=O)C3)cnc2N)cc1F)c1ccccc1 (stereo partly drawn) [Example 29, 4-(2-amino-5-(1-methyl-2-oxopiperidin-4-yl)pyridin-3-yl)-2-fluoro-N—((R)-1-phenylethyl)benzamide]"
0.00109 µM,,"CN1CC(c2cnc(N)c(-c3ccc(C(=O)N[C@H](CO)c4cccc(Cl)c4)c(F)c3)c2)CCC1=O (stereo partly drawn) [Example 35, 4-(2-amino-5-(1-methyl-6-oxopiperidin-3-yl)pyridin-3-yl)-N—((S)-1-(3-chlorophenyl)-2-hydroxyethyl)-2-fluorobenzamide]"
,0.00202 µM,"Nc1ncc(C(=O)N2CC(O)C2)nc1-c1ccc(C(=O)N[C@H](CO)c2cc(F)cc(Br)c2)c(F)c1 [Example 476, (S)-4-(3-amino-6-(3-hydroxyazetidine-1-carbonyl)pyrazin-2-yl)-N-(1-(3-bromo-5-fluorophenyl)-2-hydroxyethyl)-2-fluorobenzamide]"
,0.00859 µM,"Nc1ncc(C(=O)N2CCC(O)CC2)cc1-c1ccc(C(=O)N[C@H](CO)c2cc(F)cc(Br)c2)c(F)c1 [Example 477, (S)-4-(2-amino-5-(4-hydroxypiperidine-1-carbonyl)pyridin-3-yl)-N-(1-(3-bromo-5-fluorophenyl)-2-hydroxyethyl)-2-fluorobenzamide]"
